Assay results: patent US20070135383A1, “Phospholipase inhibitors, including multi-valent phospholipase inhibitors, and use thereof, including as lumen-localized phospholipase inhibitors” (priority 2005, published 2007)

Tests used:
PL A2 = conditions: range given in words, art-known PL A2 inhibitors; cited from earlier work
[1] = system: C57BL/6J mouse model of obesity; assay: Mouse diet-induced obesity model (Example 19); type: in vivo; conditions: low fat control diet D12328, 25 or 90 mg/kg/d
Description: The high-fat diet-fed C57BL/6J mouse model of human diabetes, originally introduced by Surwit and colleagues (Surwit, R S, et al. (1988) “Diet-induced type II diabetes in C57BL/6J mice”, Diabetes 37: 1163-1167) is a widely accepted, clinically relevant, polygenic model that induces obesity, dyslipidemia, glucose- and insulin-resistance as early as 3 weeks after commencing the high fat diet (Winzell, M S and Ahren, B (2004) “The high-fat diet-fed mouse: a model for studying mechanisms and treatment of impaired glucose tolerance and type 2 diabetes”, Diabetes 53 Suppl 3: S215-219). This model was used to investigate the effects of indole and indole-related Test Articles. Avandia (rosiglitazone) was used as a control Test Article. […]
In these studies and the accompanying figures, Diet D12328 from Research Diets is referred to as the “Low Fat” or Control diet/chow, while Diet D12331 from Research Diets is referred to as the “High Fat” diet. […] The Test Article content was calculated such that ad libitum consumption by the animals would deliver doses (in mg of Test Article per kg animal weight per day) approximating those listed in Table 11.
Animals were maintained on the diets for up to eleven weeks. Body weights were recorded weekly. […] The serum was analyzed for glucose, total cholesterol, triglycerides (TG) and lysophospholipid (LPC) content. […]

[2] = system: LDL receptor knockout mice; assay: LDL receptor knockout mouse model (Example 20); type: in vivo; conditions: low fat control diet D12328, 25 or 90 mg/kg/d
Description: Mice lack an enzyme found in humans, cholesterol ester transfer protein (CETP), which is responsible for the transfer of cholesterol from high density lipoproteins (HDL) to the ApoB-containing lipoproteins such as very low density lipoproteins (VLDL) and low density lipoproteins (LDL). Consequently, LDL cholesterol levels in wild-type mice are very low compared to those seen in humans. The low density lipoprotein receptor (LDLR) is involved with clearing LDL and lipoprotein remnants containing apoE. If the LDLR is inactivated, LDL cholesterol levels rise to levels seen in humans. On a normal rodent diet, the LDL cholesterol levels in LDLR deficient mice are elevated compared to wild-type mice. […]
In these studies and the accompanying figures, Diet D12328 from Research Diets is referred to as the “Low Fat” or Control diet, while Diet D12079B from Research Diets is referred to as the “Western” diet. […] The Test Article content was calculated such that ad libitum consumption by the animals would deliver doses (in mg of Test Article per Kg animal weight per day) approximating those listed in Table 12.
Animals were maintained on the diets for eight weeks. Body weights were recorded weekly. […] The serum was analyzed for total cholesterol, LDL cholesterol, HDL cholesterol, triglycerides (TG), free fatty acid (FFA) and lysophospholipid (LPC) content. […]

mice = assay: Toxicology, daily oral gavage for 5 consecutive days (Example 23); type: in vivo
Description: The purpose of this study was to evaluate the toxicity of indole and indole-related Test Articles when administered daily via oral gavage to mice for 5 consecutive days.
Assessment of toxicity was based on mortality; clinical signs, body weight, food consumption, clinical pathology, and macroscopic pathology data.

[3] = Mouse pharmacokinetic study, IV vs oral (Example 18); type: in vivo, male CD-1 mice; conditions: male, CD-1, mouse, in vivo; PO 30 mg/kg vs IV 3 mg/kg, serum by LC/MS/MS
Experimental: The plasma exposure of male CD-1 mice to indole and indole-related test articles (TAs) following intravenous (IV, 3 mg/kg) and oral (PO, 30 mg/kg) routes of administration was measured. This model was used to investigate the bioavailability of indole and indole-related TAs in mouse. Mice were selected for the study since they are an accepted species frequently used in pre-clinical evaluation of drugs intended for human use.
Male CD-1 mice (7-8 weeks old) were obtained from Charles River Laboratories (Wilmington, Mass.). Two groups (N=18 and 27) of male CD-1 mice were used for the study. Upon arrival, the animals were placed on Rodent Diet 5001 (Purina Mills, Inc., St. Louis, Mo.).
On study day (−1), indole and indole-related TAs were formulated for oral or IV dosing by mixing the formulation components with test article in the proportions described in Table 10.1. The components were mixed by vortexing and sonicating in a warming bath for 60 minutes. Animals were fasted overnight prior to start of the study. On study day (1), formulations were sonicated for an hour to make sure that no visible particles were present prior to dosing, or if present were evenly distributed in suspension. Formulated test article were stirred continuously during dosing.
All animals were weighed on study day (1) and the body weights were recorded and used for dose calculation. The animals were dosed by either PO or IV route as outlined in Table 10.2. Blood samples (0.5 mL) were collected at specified time intervals into labeled, yellow-capped Microtainer tubes. The tubes were centrifuged (8,000×g, 10 min). Serum was then pipetted off into labeled Eppendorf® tubes and frozen at −80° C. Clinical observations were recorded as needed.
Analysis of serum samples was performed by LC/MS/MS (Waters Quattro Premier, Milford, Mass.). Areas under curves (AUC) were calculated using Graphpad Prism Version 4. Bioavailability was calculated using the following equation: (Bioavailability)=(AUC0-t,oral/AUC0-t,iv)×(Doseiv/Doseoral)×100
where AUC0-t=total area under curve at the last measurable time point

[4] = target: T1, porcine group 1B PLA2 (pps PLA2) (Sus scrofa, UniProt P00592); assay: Fluorimetric PPyrPM assay for group 1B PLA2 inhibition (Example 12); type: biochemical; conditions: porcine pancreas secreted PLA2; read-out: ILYPSA IC50 pps PLA2
T1 construct: purchased
T1 sequence (P00592 23-146): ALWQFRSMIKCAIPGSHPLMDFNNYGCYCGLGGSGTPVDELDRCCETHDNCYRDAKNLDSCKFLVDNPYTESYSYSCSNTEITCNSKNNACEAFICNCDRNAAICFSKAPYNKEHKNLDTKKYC
How it was run: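 Porcine group 1B PLA2 hydrolysis of 4.2 uM PPyrPM vesicle solution (pre-mixing concentration) in 50 mM Tris-HCl pH 8.0, 50 mM KCl, 1 mM CaCl2 with BSA; inhibitors in 8-point threefold series from 15 uM. After 3 min at 37 °C, fluorescence read at ex 342/em 395 nm; duplicate IC50 by four-parameter fit.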

[5] = target: T2, human group 1B PLA2 (hps PLA2) (Homo sapiens, UniProt P04054); assay: as above; type: biochemical; conditions: human pancreas secreted PLA2; read-out: ILYPSA IC50 hps PLA2
T2 construct: made in house; host or cells: E. coli
T2 sequence (P04054 23-148): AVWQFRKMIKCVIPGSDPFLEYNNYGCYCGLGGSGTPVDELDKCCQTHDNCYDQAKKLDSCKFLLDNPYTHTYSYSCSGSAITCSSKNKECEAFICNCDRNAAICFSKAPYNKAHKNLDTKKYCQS

[6] = target: T3, mouse group 1B PLA2 (mps PLA2) (Mus musculus, UniProt Q9Z0Y2); assay: as above; type: biochemical; conditions: mouse pancreas secreted PLA2; read-out: ILYPSA IC50 mps PLA2
T3 construct: made in house; host or cells: E. coli
T3 sequence (Q9Z0Y2 23-146): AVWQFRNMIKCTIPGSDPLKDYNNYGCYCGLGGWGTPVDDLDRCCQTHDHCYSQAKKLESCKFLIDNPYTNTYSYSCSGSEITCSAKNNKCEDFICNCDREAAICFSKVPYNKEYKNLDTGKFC

| Compound | IC50 (PL A2) | bioavailability [3] | IC50 [4] | IC50 [5] | IC50 [6] | also measured |
| --- | --- | --- | --- | --- | --- | --- |
| C=CCN(CC(=O)OCC)C(=O)COc1ccc(C(=O)OCc2ccccc2)cc1 | μM range | – | – | – | – | – |
| CCN(CC)CCN(Cc1ccc(-c2ccc(C(F)(F)F)cc2)cc1)C(=O)Cn1cc(Cc2ccn(C)n2)c(=O)nc1SCc1ccc(F)cc1 [GB-480848] | nM or subnM range | – | – | – | – | – |
| Cc1c(C(=O)C(N)=O)c2c(OCC(=O)O)cccc2n1CCCCCCCCCCCCOc1ccc(C(C)(C)c2ccc(OCCCCCCCCCCCCn3c(C)c(C(=O)C(N)=O)c4c(OCC(=O)O)cccc43)cc2)cc1 [ILY4011] | – | – | – | – | – | effect of test article in animals fed low fat control diet [1]: No or little effect; effect of test article in animals fed low fat control diet [2]: No or little effect; clinical pathology data, treated groups vs vehicle control group (mice): no differences |
| Cc1c(C(=O)C(N)=O)c2c(OC(C(=O)O)C(C)C)cccc2n1CCCCCCCCCCCCOc1ccccc1OCCCCCCCCCCCCn1c(C)c(C(=O)C(N)=O)c2c(OC(C(=O)O)C(C)C)cccc21 (stereo not drawn) [ILY-V-33, 2,2′-(1,1′-(12,12′-(1,2-phenylenebis(oxy))bis(dodecane-12,1-diyl))bis(3-(2-amino-2-oxoacetyl)-2-methyl-1H-indole-4,1-diyl))bis(oxy)bis(3-methylbutanoic acid)] | – | 8.75% | 240 nM | 220 nM | 200 nM | – |
| Cc1c(C(=O)C(N)=O)c2c(OCC(=O)O)cccc2n1CCCCCCCCCCCCOc1ccccc1-c1ccccc1OCCCCCCCCCCCCn1c(C)c(C(=O)C(N)=O)c2c(OCC(=O)O)cccc21 [ILY-V-37, [3-Aminooxalyl-1-(12-{2′-[12-(3-aminooxalyl-4-carboxymethoxy-2-methyl-indol-1-yl)-dodecyloxy]-biphenyl-2-yloxy}-dodecyl)-2-methyl-1H-indol-4-yloxy]-acetic acid] | – | 0.15% | 200 nM | 270 nM | 230 nM | – |
| Cc1c(C(=O)C(N)=O)c2c(OCC(=O)O)cccc2n1CCCCCCCCCCCCOc1ccccc1OCCCCCCCCCCCC(=O)O [ILY-V-41, 12-{2-[12-(3-Aminooxalyl-4-carboxymethoxy-2-methyl-indol-1-yl)-dodecyloxy]-phenoxy}-dodecanoic acid] | – | 1.62% | 1140 nM | 1540 nM | 1600 nM | – |
| CCc1c(CC(N)=O)c2cc(OCCCP(=O)(O)O)ccc2n1Cc1ccccc1 [LY-311727] | sub μM range | – | – | – | – | – |
